Laboratory results from patent US12643879B2, “Functionalized heterocyclic compounds as modulators of stimulator of interferon genes (STING)” (RYVU THERAPEUTICS S.A., priority 2019, dated 2026).
Where a name gives a salt, the structure may show the parent alone. Read-outs that look alike come from different tables or passages of the source.

Assays:
[1] = tested on: interferon regulatory factor (IRF) pathway in THP-1 dual cells; assay: THP-1 Dual reporter assay, IRF pathway (luciferase); format: cell-based; conditions: Homo sapiens, THP1-Dual, read-out: THP1 Dual EC50 (μM) IRF
Protocol: (§1) Compounds of the present invention were tested for their activity using THP-1 dual cells (Invivogen, cat no. thpd-nfis) allowing for simultaneous study of NF-κB pathway and the interferon regulatory factor (IRF) pathway. THP-1 dual cells contain luciferase reporter gene under the control of an ISG54 (interferon-stimulated gene) minimal promoter in conjunction with five interferon-stimulated response elements and a secreted embryonic alkaline phosphatase reporter gene under the control an IFN (interferon)-β minimal promoter fused to five copies of the NF-κB consensus transcriptional response element with three copies of the c-Rel binding site. Following 18 h of stimulation with STING agonist, medium was collected and transferred onto fresh cell culture plate. To verify activity of the IRF pathway, luminescence activity was measured with standard laboratory plate reader immediately after addition 10 μl of the medium to 40 or 50 μl of luminescence reagent (Invivogen, cat. No. rep-qlc2). To verify activity of NF-κB pathway, 10 or 20 μl of the medium was mixed with 80 μl of a detection medium (Invivogen, cat. No. rep-qb2) and incubated for 1 or 2 hours at 37° C. in a humidified atmosphere containing 5% CO2. Next, absorbance at 630 or 655 nm was recorded using standard laboratory plate reader.

[2] = tested on: NF-κB pathway in THP-1 dual cells; assay: THP-1 Dual reporter assay, NF-κB pathway (SEAP); format: cell-based; conditions: Homo sapiens, THP1-Dual, read-out: THP1 Dual EC50 (μM) NFkB
Protocol: as §1

[3] = 18 h stimulation, absorbance at 630 or 655 nm

| Compound | EC50 ([1]; 18 h stimulation, luminescence) [µM] | EC50 [2, 3] [µM] | EC50 ([1]; 18 h) [µM] | EC50 ([2]; 18 h) [µM] |
| --- | --- | --- | --- | --- |
| Cc1cc(CN(Cc2cn(C3CC3)c3cc(OCCO)c(F)cc3c2=O)[C@H]2CCCN(c3ccc(Cl)nc3)C2)ccn1 [Example 97, 3-({[(3S)-1-(6-chloropyridin-3-yl)piperidin-3-yl][(2-methylpyridin-4-yl)methyl]amino}methyl)-1-cyclopropyl-6-fluoro-7-(2-hydroxyethoxy)-1,4-dihydroquinolin-4-one hydrochloride] |  |  | < 1 | < 1 |
| Cc1ccc(N2CCC[C@H](N(Cc3ccnc(C)c3)Cc3cn(C(C)C)c4cc(N5C[C@@H](O)[C@@H](O)C5)ccc4c3=O)C2)cn1 [Example 54, 7-[(3R,4S)-3,4-dihydroxypyrrolidin-1-yl]-3-({[(3S)-1-(6-methylpyridin-3-yl)piperidin-3-yl][(2-methylpyridin-4-yl)methyl]amino}methyl)-1-(propan-2-yl)-1,4-dihydroquinolin-4-one] | < 1 | 1 to 10 |  |  |
| Cc1ccc(N2CCC[C@H](N(Cc3ccnc(C)c3)Cc3cn(C(C)C)c4cc(N5CCN(CCO)CC5)ccc4c3=O)C2)cn1 [Example 53, 7-[4-(2-Hydroxyethyl)piperazin-1-yl]-3-({[(3S)-1-(6-methylpyridin-3-yl)piperidin-3-yl][(2-methylpyridin-4-yl)methyl]amino}methyl)-1-(propan-2-yl)-1,4-dihydroquinolin-4-one] | < 1 | < 1 |  |  |
| Cc1ccc(N2CCC[C@H](N(Cc3ccnc(C)c3)Cc3cn(C4CC4)c4cc(N5CC[C@@H](N(C)C(=O)CCOCCOCCOCCN)C5)c(F)cc4c3=O)C2)cn1 [Example 55D, 3-{2-[2-(2-aminoethoxy)ethoxy]ethoxy}-N-[(3R)-1-[1-cyclopropyl-6-fluoro-3-({[(3S)-1-(6-methylpyridin-3-yl)piperidin-3-yl][(2-methylpyridin-4-yl)methyl]amino}methyl)-4-oxo-1,4-dihydroquinolin-7-yl]pyrrolidin-3-yl]-N-methylpropanamide formate] | 1 to 10 | 1 to 10 |  |  |
| Cc1ccc(N2CCC[C@H](N(Cc3ccnc(C)c3)Cc3cn(C4CC4)c4cc(N5CC[C@H](O)C5)c(F)cc4c3=O)C2)cn1 [Example 39, 1-cyclopropyl-6-fluoro-7-[(3S)-3-hydroxypyrrolidin-1-yl]-3-({[(3S)-1-(6-methylpyridin-3-yl)piperidin-3-yl][(2-methylpyridin-4-yl)methyl]amino}methyl)-1,4-dihydroquinolin-4-one hydrochloride] | < 1 | < 1 |  |  |
| Cc1ccc(N2CCC[C@H](N(Cc3ccnc(C)c3)Cc3cn(C4CC4)c4cc(N5CCC(N(C)C(=O)OCc6ccc(NC(=O)[C@H](CCCNC(N)=O)NC(=O)[C@@H](NC(=O)CCOCCOCCOCCN=[N+]=[N-])C(C)C)cc6)CC5)c(F)cc4c3=O)C2)cn1 [Example 19A] | 1 to 10 | 1 to 10 |  |  |
| Cc1ccc(N2CCC[C@H](N(Cc3ccnc(C)c3)Cc3cn(C(C)C)c4nc(N5CC[C@@H](O)C5)c(F)cc4c3=O)C2)cn1 [Example 42, 6-fluoro-7-[(3R)-3-hydroxypyrrolidin-1-yl]-3-({[(3S)-1-(6-methylpyridin-3-yl)piperidin-3-yl][(2-methylpyridin-4-yl)methyl]amino}methyl)-1-(propan-2-yl)-1,4-dihydro-1,8-naphthyridin-4-one] |  |  | < 1 | < 1 |
| Cc1ccc(N2CCC[C@H](N(Cc3ccnc(C)c3)Cc3cn(C4CC4)c4cc(OCCN(C)C(=O)OCc5ccc(NC(=O)[C@H](CCCNC(N)=O)NC(=O)[C@@H](NC(=O)CCOCCOCCOCCN=[N+]=[N-])C(C)C)cc5)c(F)cc4c3=O)C2)cn1 [Example 11H, {4-[(2S)-2-[(2S)-2-(3-{2-[2-(2-azidoethoxy)ethoxy]ethoxy}propanamido)-3-methyl-butanamido]-5-(carbamoylamino)pentanamido]phenyl}methyl N-(2-{[1-cyclopropyl-6-fluoro-3-({[(3S)-1-(6-methylpyridin-3-yl)piperidin-3-yl][(2-methylpyridin-4-yl)methyl]amino}methyl)-4-oxo-1,4-dihydroquinolin-7-yl]oxy}ethyl)-N-methylcarbamate] | > 10 | > 10 |  |  |
| Cc1cc(CN(Cc2cn(C3CC3)c3cc(N4CC[C@H](CO)C4)c(F)cc3c2=O)[C@H]2CCCN(c3cnccn3)C2)ccn1 [Example 94, 1-cyclopropyl-6-fluoro-7-[(3S)-3-(hydroxymethyl)pyrrolidin-1-yl]-3-({[(2-methylpyridin-4-yl)methyl][(3S)-1-(pyrazin-2-yl)piperidin-3-yl]amino}methyl)-1,4-dihydroquinolin-4-one hydrochloride] | < 1 | < 1 |  |  |
| Cc1cc(CN(Cc2cn(C3CC3)c3cc(OCCO)c(F)cc3c2=O)[C@H]2CCCN(c3cccnc3)C2)ccn1 [Example 84, 1-cyclopropyl-6-fluoro-7-(2-hydroxyethoxy)-3-({[(2-methylpyridin-4-yl)methyl][(3S)-1-(pyridin-3-yl)piperidin-3-yl]amino}methyl)-1,4-dihydroquinolin-4-one hydrochloride] |  |  | < 1 | < 1 |
| Cc1cc(CN(Cc2cn(C(C)C)c3cc(N4CC[C@@H](O)C4)ccc3c2=O)[C@H]2CCCN(c3cncnc3)C2)ccn1 [Example 59, 7-[(3R)-3-Hydroxypyrrolidin-1-yl]-3-({[(2-methylpyridin-4-yl)methyl][(3S)-1-(pyrimidin-5-yl)piperidin-3-yl]amino}methyl)-1-(propan-2-yl)-1,4-dihydroquinolin-4-one] | > 10 | > 10 |  |  |
| COc1cc(CN(Cc2cn(C3CC3)c3cc(N4CC[C@@H](O)C4)c(F)cc3c2=O)[C@H]2CCCN(c3cccnc3)C2)ccn1 [Example 65, 1-cyclopropyl-6-fluoro-7-[(3R)-3-hydroxypyrrolidin-1-yl]-3-({[(2-methoxypyridin-4-yl)methyl][(3S)-1-(pyridin-3-yl)piperidin-3-yl]amino}methyl)-1,4-dihydroquinolin-4-one hydrochloride] |  |  | < 1 | < 1 |
| Cc1ccc(N2CCC[C@H](N(Cc3ccnc(C)c3)Cc3cn(C4CC4)c4cc(OCCNC(=O)OCc5ccc(NC(=O)[C@H](CCCNC(N)=O)NC(=O)[C@@H](NC(=O)CCOCCOCCOCCN=[N+]=[N-])C(C)C)cc5)c(F)cc4c3=O)C2)cn1 [Example 10A, {4-[(2S)-2-[(2S)-2-(3-{2-[2-(2-azidoethoxy)ethoxy]ethoxy}propanamido)-3-methyl-butanamido]-5-(carbamoylamino)pentanamido]phenyl}methyl N-(2-{[1-cyclopropyl-6-fluoro-3-({[(3S)-1-(6-methylpyridin-3-yl)piperidin-3-yl][(2-methylpyridin-4-yl)methyl]amino}methyl)-4-oxo-1,4-dihydroquinolin-7-yl]oxy}ethyl)carbamate] | > 10 | > 10 |  |  |

Continued, in another order:

| EC50 ([1]; 18 h stimulation, luminescence) [µM] | EC50 [2, 3] [µM] | Compound | EC50 ([1]; 18 h) [µM] | EC50 ([2]; 18 h) [µM] |
| --- | --- | --- | --- | --- |
| 1 to 10 | 1 to 10 | Cc1ccc(N2CCC[C@H](N(Cc3ccnc(C)c3)Cc3cn(C4CC4)c4cc(N5CC[C@H](CNC(=O)CCOCCOCCOCCOCCN)C5)c(F)cc4c3=O)C2)cn1 [Example 15A, 1-amino-N-{[(3R)-1-[1-cyclopropyl-6-fluoro-3-({[(3S)-1-(6-methylpyridin-3-yl)piperidin-3-yl][(2-methylpyridin-4-yl)methyl]amino}methyl)-4-oxo-1,4-dihydroquinolin-7-yl]pyrrolidin-3-yl]methyl}-3,6,9,12-tetraoxapentadecan-15-amide] |  |  |
| < 1 | < 1 | Cc1ccc(N2CCC[C@H](N(Cc3ccnc(C)c3)Cc3cn(C)c4cc(N5CC[C@@H](N)C(F)(F)C5)ccc4c3=O)C2)cn1 (single isomer, unassigned) [Example 50] |  |  |
| < 1 | < 1 | C#CCOCCOCCOCCOCCOCCC(=O)Nc1ccc(CNC(=O)O[C@H]2CCCN(c3cc4c(cc3F)c(=O)c(CN(Cc3ccnc(C)c3)[C@H]3CCCN(c5ccc(C)nc5)C3)cn4C3CC3)C2)cc1 [Example 31B, (3S)-1-[1-cyclopropyl-6-fluoro-3-({[(3S)-1-(6-methylpyridin-3-yl)piperidin-3-yl][(2-methylpyridin-4-yl)methyl]amino}methyl)-4-oxo-1,4-dihydroquinolin-7-yl]piperidin-3-yl N-{[4-(4,7,10,13,16-pentaoxanonadec-18-ynamido)phenyl]methyl}carbamate] |  |  |
| 1 to 10 | 1 to 10 | Cc1cc(CN(Cc2cn(C)c3ccccc3c2=O)[C@H]2CCCN(c3ccc(OCCO)nc3)C2)ccn1 [Example 101, 3-({[(3S)-1-[6-(2-hydroxyethoxy)pyridin-3-yl]piperidin-3-yl][(2-methylpyridin-4-yl)methyl]amino}methyl)-1-methyl-1,4-dihydroquinolin-4-one] |  |  |
| < 1 | < 1 | Cc1cc(CN(Cc2cn(C3CC3)c3cc(N4CC[C@@H](CO)C4)c(F)cc3c2=O)[C@H]2CCCN(c3cnccn3)C2)ccn1 [Example 91, 1-cyclopropyl-6-fluoro-7-[(3R)-3-(hydroxymethyl)pyrrolidin-1-yl]-3-({[(2-methylpyridin-4-yl)methyl][(3S)-1-(pyrazin-2-yl)piperidin-3-yl]amino}methyl)-1,4-dihydroquinolin-4-one hydrochloride] |  |  |
